Laboratory results: patent US20150018311A1, “THERAPEUTIC BORON-CONTAINING COMPOUNDS” (priority 2012, published 2015)

Tests used:
Assay in all cases: Growth in liquid media in presence of test compound
Type in all cases: cell-based
[1] = test system: Mycobacterium tuberculosis (H37Rv)
[2] = test system: Candida albicans (ATCC 90028)
[3] = test system: Escherichia coli (ATCC 25922)
[4] = test system: Pseudomonas aeruginosa (ATCC 27853)
[5] = test system: Staphylococcus aureus (ATCC 25923)
[6] = test system: Streptococcus pyogenes (ATCC 19615)

`CC1(C)C2CC3OB([C@@H](CNC(=O)[C@@H](N)Cc4ccccc4)Cc4ccc(OC(F)(F)F)cc4)O[C@]3(C)C1C2.Cl` (stereo partly drawn) [Compound 55] was tested, and the “Growth in the presence of test compound, M. tuberculosis” value (“Growth … M. tuberculosis” for short) ([1]; 5 mg/L) was “−”, the “Growth … M. tuberculosis” value ([1]; 50 mg/L) was “−” and the “Growth … M. tuberculosis” value ([1]; 500 mg/L) was “−”. The “Growth in the presence of test compound, C. albicans” value (shortened to “Growth in the presence … C. albicans”) ([2]; 5 mg/L) was “+”, the “Growth in the presence … C. albicans” value ([2]; 50 mg/L) was “+” and the “Growth in the presence … C. albicans” value ([2]; 500 mg/L) was “±”. For the same compound, the “Growth in the presence of test compound, E. coli” value (“Growth in the presence … E. coli” below) ([3]; 5 mg/L) was “+”, the “Growth in the presence … E. coli” value ([3]; 50 mg/L) was “+” and the “Growth in the presence … E. coli” value ([3]; 500 mg/L) was “+”. The “Growth in the presence of test compound, P. aeruginosa” value (from here on “Growth … P. aeruginosa”) ([4]; 5 mg/L) was “+”, the “Growth … P. aeruginosa” value ([4]; 50 mg/L) was “+” and the “Growth … P. aeruginosa” value ([4]; 500 mg/L) was “+”. The “Growth in the presence of test compound, S. aureus” value (“Growth in the presence … S. aureus” for short) ([5]; 5 mg/L) was “+”, the “Growth in the presence … S. aureus” value ([5]; 50 mg/L) was “±” and the “Growth in the presence … S. aureus” value ([5]; 500 mg/L) was “+”. The “Growth in the presence of test compound, S. pyogenes” value (“Growth in the presence … S. pyogenes” for short) ([6]; 5 mg/L) was “+”, the “Growth in the presence … S. pyogenes” value ([6]; 50 mg/L) was “±” and the “Growth in the presence … S. pyogenes” value ([6]; 500 mg/L) was “+”.
`CC1(C)C2CC3OB([C@@H](CNC(=O)[C@H](N)Cc4ccccc4)Cc4ccccc4)O[C@]3(C)C1C2` (stereo partly drawn) [Compound 41] was tested, and the “Growth … M. tuberculosis” value ([1]; 5 mg/L) was “+”, the “Growth … M. tuberculosis” value ([1]; 50 mg/L) was “±” and the “Growth … M. tuberculosis” value ([1]; 500 mg/L) was “±”. For the same compound, the “Growth in the presence … C. albicans” value ([2]; 5 mg/L) was “+”, the “Growth in the presence … C. albicans” value ([2]; 50 mg/L) was “±” and the “Growth in the presence … C. albicans” value ([2]; 500 mg/L) was “±”. For the same compound, the “Growth in the presence … E. coli” value ([3]; 5 mg/L) was “+”, the “Growth in the presence … E. coli” value ([3]; 50 mg/L) was “+” and the “Growth in the presence … E. coli” value ([3]; 500 mg/L) was “+”. For the same compound, the “Growth … P. aeruginosa” value ([4]; 5 mg/L) was “+”, the “Growth … P. aeruginosa” value ([4]; 50 mg/L) was “+” and the “Growth … P. aeruginosa” value ([4]; 500 mg/L) was “+”. For the same compound, the “Growth in the presence … S. aureus” value ([5]; 5 mg/L) was “+”, the “Growth in the presence … S. aureus” value ([5]; 50 mg/L) was “+” and the “Growth in the presence … S. aureus” value ([5]; 500 mg/L) was “±”. For the same compound, the “Growth in the presence … S. pyogenes” value ([6]; 5 mg/L) was “+”, the “Growth in the presence … S. pyogenes” value ([6]; 50 mg/L) was “+” and the “Growth in the presence … S. pyogenes” value ([6]; 500 mg/L) was “±”.
In the case of `Cl.Cl.NCCCC[C@H](N)C(=O)NC[C@@H](Cc1ccc(OC(F)(F)F)cc1)B(O)O` [Compound 52], the “Growth … M. tuberculosis” value ([1]; 5 mg/L) is reported as “±”, the “Growth … M. tuberculosis” value ([1]; 50 mg/L) is reported as “±” and the “Growth … M. tuberculosis” value ([1]; 500 mg/L) is reported as “−”. The “Growth in the presence … C. albicans” value ([2]; 5 mg/L) was “+”, the “Growth in the presence … C. albicans” value ([2]; 50 mg/L) was “+” and the “Growth in the presence … C. albicans” value ([2]; 500 mg/L) was “−”. For the same compound, the “Growth in the presence … E. coli” value ([3]; 5 mg/L) was “+”, the “Growth in the presence … E. coli” value ([3]; 50 mg/L) was “+” and the “Growth in the presence … E. coli” value ([3]; 500 mg/L) was “+”. For the same compound, the “Growth … P. aeruginosa” value ([4]; 5 mg/L) was “+”, the “Growth … P. aeruginosa” value ([4]; 50 mg/L) was “+” and the “Growth … P. aeruginosa” value ([4]; 500 mg/L) was “+”. The “Growth in the presence … S. aureus” value ([5]; 5 mg/L) was “+”, the “Growth in the presence … S. aureus” value ([5]; 50 mg/L) was “+” and the “Growth in the presence … S. aureus” value ([5]; 500 mg/L) was “+”. The “Growth in the presence … S. pyogenes” value ([6]; 5 mg/L) was “+”, the “Growth in the presence … S. pyogenes” value ([6]; 50 mg/L) was “+” and the “Growth in the presence … S. pyogenes” value ([6]; 500 mg/L) was “±”.
`Cl.Cl.NCCCC[C@@H](N)C(=O)NC[C@@H](Cc1ccc(OC(F)(F)F)cc1)B(O)O` [Compound 43] was tested, and the “Growth … M. tuberculosis” value ([1]; 5 mg/L) was “+”, the “Growth … M. tuberculosis” value ([1]; 50 mg/L) was “+” and the “Growth … M. tuberculosis” value ([1]; 500 mg/L) was “−”. For the same compound, the “Growth in the presence … C. albicans” value ([2]; 5 mg/L) was “+”, the “Growth in the presence … C. albicans” value ([2]; 50 mg/L) was “+” and the “Growth in the presence … C. albicans” value ([2]; 500 mg/L) was “±”. For the same compound, the “Growth in the presence … E. coli” value ([3]; 5 mg/L) was “+”, the “Growth in the presence … E. coli” value ([3]; 50 mg/L) was “+” and the “Growth in the presence … E. coli” value ([3]; 500 mg/L) was “−”. The “Growth … P. aeruginosa” value ([4]; 5 mg/L) was “+”, the “Growth … P. aeruginosa” value ([4]; 50 mg/L) was “+” and the “Growth … P. aeruginosa” value ([4]; 500 mg/L) was “−”. For the same compound, the “Growth in the presence … S. aureus” value ([5]; 5 mg/L) was “+”, the “Growth in the presence … S. aureus” value ([5]; 50 mg/L) was “+” and the “Growth in the presence … S. aureus” value ([5]; 500 mg/L) was “−”. The “Growth in the presence … S. pyogenes” value ([6]; 5 mg/L) was “+”, the “Growth in the presence … S. pyogenes” value ([6]; 50 mg/L) was “+” and the “Growth in the presence … S. pyogenes” value ([6]; 500 mg/L) was “−”.
With `CC(NC(=O)C(N)CCCCN)C(Cc1ccccc1)B1OC2CC3CC(C3(C)C)C2(C)O1` (stereo not drawn) [Compound 26] the “Growth … M. tuberculosis” value ([1]; 5 mg/L) was “−”, the “Growth … M. tuberculosis” value ([1]; 50 mg/L) was “−” and the “Growth … M. tuberculosis” value ([1]; 500 mg/L) was “−”. The “Growth in the presence … C. albicans” value ([2]; 5 mg/L) was “+”, the “Growth in the presence … C. albicans” value ([2]; 50 mg/L) was “+” and the “Growth in the presence … C. albicans” value ([2]; 500 mg/L) was “−”. The “Growth in the presence … E. coli” value ([3]; 5 mg/L) was “+”, the “Growth in the presence … E. coli” value ([3]; 50 mg/L) was “+” and the “Growth in the presence … E. coli” value ([3]; 500 mg/L) was “−”. The “Growth … P. aeruginosa” value ([4]; 5 mg/L) was “+”, the “Growth … P. aeruginosa” value ([4]; 50 mg/L) was “+” and the “Growth … P. aeruginosa” value ([4]; 500 mg/L) was “−”. For the same compound, the “Growth in the presence … S. aureus” value ([5]; 5 mg/L) was “+”, the “Growth in the presence … S. aureus” value ([5]; 50 mg/L) was “+” and the “Growth in the presence … S. aureus” value ([5]; 500 mg/L) was “−”. For the same compound, the “Growth in the presence … S. pyogenes” value ([6]; 5 mg/L) was “+”, the “Growth in the presence … S. pyogenes” value ([6]; 50 mg/L) was “+” and the “Growth in the presence … S. pyogenes” value ([6]; 500 mg/L) was “−”.
For `Cl.N[C@@H](Cc1ccccc1)C(=O)NC[C@@H](Cc1ccc(F)cc1)B(O)O` [Compound 50], the “Growth … M. tuberculosis” value ([1]; 5 mg/L) was “±”, the “Growth … M. tuberculosis” value ([1]; 50 mg/L) was “−” and the “Growth … M. tuberculosis” value ([1]; 500 mg/L) was “−”. For the same compound, the “Growth in the presence … C. albicans” value ([2]; 5 mg/L) was “+”, the “Growth in the presence … C. albicans” value ([2]; 50 mg/L) was “+” and the “Growth in the presence … C. albicans” value ([2]; 500 mg/L) was “+”. The “Growth in the presence … E. coli” value ([3]; 5 mg/L) was “+”, the “Growth in the presence … E. coli” value ([3]; 50 mg/L) was “+” and the “Growth in the presence … E. coli” value ([3]; 500 mg/L) was “−”. For the same compound, the “Growth … P. aeruginosa” value ([4]; 5 mg/L) was “+”, the “Growth … P. aeruginosa” value ([4]; 50 mg/L) was “+” and the “Growth … P. aeruginosa” value ([4]; 500 mg/L) was “±”. The “Growth in the presence … S. aureus” value ([5]; 5 mg/L) was “+”, the “Growth in the presence … S. aureus” value ([5]; 50 mg/L) was “+” and the “Growth in the presence … S. aureus” value ([5]; 500 mg/L) was “−”. The “Growth in the presence … S. pyogenes” value ([6]; 5 mg/L) was “+”, the “Growth in the presence … S. pyogenes” value ([6]; 50 mg/L) was “+” and the “Growth in the presence … S. pyogenes” value ([6]; 500 mg/L) was “−”.
`C[C@H](N)C(=O)NC[C@H](Cc1ccccc1)B1OC2CC3CC(C3(C)C)[C@]2(C)O1` (stereo partly drawn) [Compound 15] was tested, and the “Growth … M. tuberculosis” value ([1]; 5 mg/L) was “+”, the “Growth … M. tuberculosis” value ([1]; 50 mg/L) was “−” and the “Growth … M. tuberculosis” value ([1]; 500 mg/L) was “−”. For the same compound, the “Growth in the presence … C. albicans” value ([2]; 5 mg/L) was “+”, the “Growth in the presence … C. albicans” value ([2]; 50 mg/L) was “+” and the “Growth in the presence … C. albicans” value ([2]; 500 mg/L) was “−”. For the same compound, the “Growth in the presence … E. coli” value ([3]; 5 mg/L) was “+”, the “Growth in the presence … E. coli” value ([3]; 50 mg/L) was “+” and the “Growth in the presence … E. coli” value ([3]; 500 mg/L) was “±”. The “Growth … P. aeruginosa” value ([4]; 5 mg/L) was “+”, the “Growth … P. aeruginosa” value ([4]; 50 mg/L) was “+” and the “Growth … P. aeruginosa” value ([4]; 500 mg/L) was “+”. The “Growth in the presence … S. aureus” value ([5]; 5 mg/L) was “+”, the “Growth in the presence … S. aureus” value ([5]; 50 mg/L) was “+” and the “Growth in the presence … S. aureus” value ([5]; 500 mg/L) was “−”. For the same compound, the “Growth in the presence … S. pyogenes” value ([6]; 5 mg/L) was “+”, the “Growth in the presence … S. pyogenes” value ([6]; 50 mg/L) was “+” and the “Growth in the presence … S. pyogenes” value ([6]; 500 mg/L) was “+”.
